Where two headings read alike, the source gives them in different places. Blank lines part the entries; values can stand above or below the compound they belong to.
How the values were obtained:
Type in all cases: cell-based
K562 cells = test: modified MTT method, proliferation of K562 cells; details: Homo sapiens, read-out: IC50 on the growth of K562 cells
Method: (§1) Five test concentrations 2, 10, 50, 250 and 500 µM were set for each of five derivatives of artemisinin, artemether drug substance, artemisinin, dihydroartemisinin, artesunate were dissolved with dimethyl sulfoxide (DMSO), while the lyophilized powder of artemether was dissolved with normal saline (N.S.), followed by addition of a certain amount of RPMI 1640 complete culture solution to formulate a high-concentration solution, and each of the low-concentration solutions was formulated by proportionate dilution from the high-concentration solution.
(§2) The concentrations of DMSO contained in the solutions at the two relatively high concentrations 500 and 250 µM for the artemether drug substance, artemisinin, dihydroartemisinin, artesunate, used as solvent controls, were formulated with […] culture solution, at which time the test concentrations of DMSO were 1% and 0.5%. The concentrations of the excipients contained in the solutions at the two relatively high concentrations 500 and 250 µM for the preparation of lyophilized powder of artemether were used as solvent controls.
(§3) The positive control was an anti-cancer drug adriamycin (ADM), which was set at three test concentrations (final concentrations) of 0.1, 1 and 10 µg/ml. To ADM stock solution (1 mg/ml) a certain amount of PRMI 1640 complete culture solution was added, to formulate a high-concentration solution, and each of the low-concentration solutions were formulated by proportionate dilutions from the high-concentration solution.
(§4) HL-60: (human promyelocytic leukemia cell line); K562 (human chronic myelocytic leukemia cell line); HT-29 (human colon cancer cell line); PC-3 (human prostate cancer cell line); A549 (human non-small cell lung cancer cell line); MKN-28 (human gastric cancer cell line); Hep2 (human laryngeal cancer cell line), all of which were purchased from Cell Bank of Shanghai Institutes for Biological Sciences, the Chinese Academy of Sciences.
(§5) Influence of the five test samples on the proliferation of 7 human tumor cell lines was determined via a modified MTT method.
(§6) Cells in logarithmic growth phase were taken, adjusted to a certain concentration and then added into a 96 well culture plate. After culture of adherent cells for a period until adherence, the test samples were added; and for suspension cells, the test samples were added after inoculation. 5 test concentrations 2, 10, 50, 250 and 500 µM were set, with 3 parallel wells for each concentration, 10 µl/well; the solvent controls were 0.5% and 1% of isovolumetric DMSO, and the positive controls was ADM at 3 concentrations 0.1, 1 and 10 µg/ml. The samples were loaded followed by culture for a period of time in an incubator at 37°C, 5% CO2, followed by addition of MTT (5 mg/ml) at 20 µl/well, and continued to be cultured for a period of time and added with a three-combined solution [10% SDS - 5% isobutanol - 0.012 mol/L HCl (W/V/V)]. After dissolving in uniformity, it was continued to be placed in the incubator at 37°C, 5% CO2 for a period of time, and the OD value of each well was determined under a wavelength of 570 nm with a microplate reader, according to which the results were calculated.
(§7) The cellular proliferation inhibition rate was calculated in accordance with the following equation: Inhibition rate (%) = (OD valuecontrol well-OD valuesample well)/OD valuecontrol well × 100% [formula]
(§8) When the inhibition rate of DMSO on cells was more than 15%, calculation was carried out using the following equation: Inhibition rate (%) = (OD valuesolvent group-OD valueadministered well)/OD valuesolvent group × 100% [formula]
(§9) The inhibition rate was calculated by using Microsoft Excel 2003, and median inhibitory concentration IC50 was calculated with a LOGIT method, which was used as an indicator for judging the inhibitory capability.

HL-60 cells = test: modified MTT method, proliferation of HL-60 cells; details: Homo sapiens, read-out: IC50 on the growth of HL-60 cells
Method: as §1, §2, §3, §4, §5, §6, §7, §8, §9

PC-3 cells = test: modified MTT method, proliferation of PC-3 cells; details: Homo sapiens, read-out: IC50 on the growth of PC-3 cells
Method: as §1, §2, §3, §4, §5, §6, §7, §8, §9

HT-29 cells = test: modified MTT method, proliferation of HT-29 cells; details: Homo sapiens
Method: as §1, §2, §3, §4, §5, §6, §7, §8, §9
(§10) According to the results of preliminary screening, further experiments were adjusted such that more sensitive cell lines were screened out. […]

MKN-28 cells = test: modified MTT method, proliferation of MKN-28 cells; details: Homo sapiens, MKN-28, 72 h, secondary screening
Method: as §1, §2, §3, §4, §5, §6, §7, §8, §9, §10

Hep2 cells = test: modified MTT method, proliferation of Hep2 cells; details: Homo sapiens, HEp-2, 72 h, secondary screening
Method: as §1, §2, §3, §4, §5, §6, §7, §8, §9, §10

A549 cells = test: modified MTT method, proliferation of A549 cells; details: Homo sapiens, read-out: IC50 on the growth of A549 cells
Method: as §1, §2, §3, §4, §5, §6, §7, §8, §9

[1] = HT-29, 24 h, preliminary screening, Batch 1, 24 h, read-out: IC50 on the growth of HT-29 cells
[2] = HT-29, 24 h, preliminary screening, Batch 2, 24 h, read-out: IC50 on the growth of HT-29 cells
[3] = HT-29, 48 h, preliminary screening, Batch 1, 48 h, read-out: IC50 on the growth of HT-29 cells
[4] = HT-29, 48 h, preliminary screening, Batch 2, 48 h, read-out: IC50 on the growth of HT-29 cells
[5] = HT-29, 72 h, preliminary screening, Batch 1, 72 h, read-out: IC50 on the growth of HT-29 cells
[6] = HT-29, 72 h, preliminary screening, Batch 2, 72 h, read-out: IC50 on the growth of HT-29 cells
[7] = HT-29, 72 h, secondary screening, 72 h, Batch 1, read-out: IC50 on the growth of HT-29 cells (72 h)
[8] = HT-29, 72 h, secondary screening, 72 h, Batch 2, read-out: IC50 on the growth of HT-29 cells (72 h)
[9] = HT-29, 72 h, secondary screening, 72 h, Batch 3, read-out: IC50 on the growth of HT-29 cells (72 h)
[10] = HT-29, 72 h, secondary screening, 72 h, average, read-out: IC50 on the growth of HT-29 cells (72 h)
[11] = Average, read-out: IC50 on the growth of MKN-28 cells (72 h)
[12] = Batch 1, read-out: IC50 on the growth of MKN-28 cells (72 h)
[13] = Batch 2, read-out: IC50 on the growth of MKN-28 cells (72 h)
[14] = Batch 3, read-out: IC50 on the growth of MKN-28 cells (72 h)
[15] = Batch 1, read-out: IC50 on the growth of Hep2 cells (72 h)
[16] = Batch 2, read-out: IC50 on the growth of Hep2 cells (72 h)
[17] = Batch 3, read-out: IC50 on the growth of Hep2 cells (72 h)
[18] = average, read-out: IC50 on the growth of Hep2 cells (72 h)

IC50 (K562 cells; K562, 24 h, Batch 1, 24 h): > 1000 µM
IC50 (K562 cells; K562, 24 h, Batch 2, 24 h): > 1000 µM
IC50 (K562 cells; K562, 24 h, Batch 3, 24 h): 345 µM
IC50 (K562 cells; K562, 48 h, Batch 1, 48 h): > 1000 µM
IC50 (K562 cells; K562, 48 h, Batch 2, 48 h): > 1000 µM
IC50 (K562 cells; K562, 48 h, Batch 3, 48 h): 331 µM
IC50 (K562 cells; K562, 72 h, Batch 1, 72 h): > 1000 µM
IC50 (K562 cells; K562, 72 h, Batch 2, 72 h): 893 µM
IC50 (K562 cells; K562, 72 h, Batch 3, 72 h): 137 µM
IC50 (HL-60 cells; HL-60, 24 h, Batch 1, 24 h): > 1000 µM
IC50 (HL-60 cells; HL-60, 24 h, Batch 2, 24 h): 658 µM
IC50 (HL-60 cells; HL-60, 48 h, Batch 1, 48 h): > 1000 µM
IC50 (HL-60 cells; HL-60, 48 h, Batch 2, 48 h): 77.2 µM
IC50 (HL-60 cells; HL-60, 72 h, Batch 1, 72 h): > 1000 µM
IC50 (HL-60 cells; HL-60, 72 h, Batch 2, 72 h): 248 µM
IC50 (PC-3 cells; PC-3, 24 h, Batch 1, 24 h): > 1000 µM
IC50 (PC-3 cells; PC-3, 24 h, Batch 2, 24 h): > 1000 µM
IC50 (PC-3 cells; PC-3, 48 h, Batch 1, 48 h): > 1000 µM
IC50 (PC-3 cells; PC-3, 48 h, Batch 2, 48 h): > 1000 µM
IC50 (PC-3 cells; PC-3, 72 h, Batch 1, 72 h): > 1000 µM
IC50 (PC-3 cells; PC-3, 72 h, Batch 2, 72 h): > 1000 µM
IC50 (HT-29 cells; [1]): > 1000 µM
IC50 (HT-29 cells; [2]): > 1000 µM
IC50 (HT-29 cells; [3]): > 1000 µM
IC50 (HT-29 cells; [4]): > 1000 µM
IC50 (HT-29 cells; [5]): 318 µM
IC50 (HT-29 cells; [6]): 579 µM
IC50 (HT-29 cells; [7]): 214 µM
IC50 (HT-29 cells; [8]): 263 µM
IC50 (HT-29 cells; [9]): 245 µM
IC50 (HT-29 cells; [10]): 255 µM
IC50 (MKN-28 cells; [11]): 402 µM
IC50 (MKN-28 cells; [12]): 27900 µM
IC50 (MKN-28 cells; [13]): 336 µM
IC50 (MKN-28 cells; [14]): 520 µM
IC50 (A549 cells; A549, 24 h, Batch 1, 24 h): > 1000 µM
IC50 (A549 cells; A549, 24 h, Batch 2, 24 h): 641 µM
IC50 (A549 cells; A549, 48 h, Batch 1, 48 h): > 1000 µM
IC50 (A549 cells; A549, 48 h, Batch 2, 48 h): > 1000 µM
IC50 (A549 cells; A549, 72 h, Batch 1, 72 h): > 1000 µM
IC50 (A549 cells; A549, 72 h, Batch 2, 72 h): 832 µM
Structure (SMILES): CO[C@H]1O[C@@H]2O[C@@]3(C)CC[C@H]4[C@H](C)CC[C@@H]([C@H]1C)[C@@]24OO3 [artemether drug substance, (3R,5αS,6R,8αS,9R,10S,12R,12αR)-decahydro-10-methoxy-3,6,9-trimethyl-3,12-epoxy-12H-pyrano[4,3-j]-1,2-benzodioxepin]
IC50 (Hep2 cells; [15]): 412 µM
IC50 (Hep2 cells; [16]): > 1000 µM
IC50 (Hep2 cells; [17]): > 1000 µM
IC50 (Hep2 cells; [18]): > 1000 µM

IC50 (K562 cells; K562, 24 h, Batch 1, 24 h): > 1000 µM
IC50 (K562 cells; K562, 24 h, Batch 2, 24 h): 144 µM
IC50 (K562 cells; K562, 24 h, Batch 3, 24 h): 146 µM
IC50 (K562 cells; K562, 48 h, Batch 1, 48 h): 997 µM
IC50 (K562 cells; K562, 48 h, Batch 2, 48 h): 28 µM
IC50 (K562 cells; K562, 48 h, Batch 3, 48 h): 80.7 µM
IC50 (K562 cells; K562, 72 h, Batch 1, 72 h): 492 µM
IC50 (K562 cells; K562, 72 h, Batch 2, 72 h): 44.8 µM
IC50 (K562 cells; K562, 72 h, Batch 3, 72 h): 60.5 µM
IC50 (HL-60 cells; HL-60, 24 h, Batch 1, 24 h): > 1000 µM
IC50 (HL-60 cells; HL-60, 24 h, Batch 2, 24 h): 74.4 µM
IC50 (HL-60 cells; HL-60, 48 h, Batch 1, 48 h): > 1000 µM
IC50 (HL-60 cells; HL-60, 48 h, Batch 2, 48 h): 16.3 µM
IC50 (HL-60 cells; HL-60, 72 h, Batch 1, 72 h): > 1000 µM
IC50 (HL-60 cells; HL-60, 72 h, Batch 2, 72 h): 116 µM
IC50 (PC-3 cells; PC-3, 24 h, Batch 1, 24 h): 660 µM
IC50 (PC-3 cells; PC-3, 24 h, Batch 2, 24 h): > 1000 µM
IC50 (PC-3 cells; PC-3, 48 h, Batch 1, 48 h): > 1000 µM
IC50 (PC-3 cells; PC-3, 48 h, Batch 2, 48 h): > 1000 µM
IC50 (PC-3 cells; PC-3, 72 h, Batch 1, 72 h): 230 µM
IC50 (PC-3 cells; PC-3, 72 h, Batch 2, 72 h): > 1000 µM
IC50 (HT-29 cells; [1]): 288 µM
IC50 (HT-29 cells; [2]): 280 µM
IC50 (HT-29 cells; [3]): 337 µM
IC50 (HT-29 cells; [4]): 433 µM
IC50 (HT-29 cells; [5]): 160 µM
IC50 (HT-29 cells; [6]): 258 µM
IC50 (HT-29 cells; [7]): 236 µM
IC50 (HT-29 cells; [8]): 173 µM
IC50 (HT-29 cells; [9]): 148 µM
IC50 (HT-29 cells; [10]): 143 µM
IC50 (MKN-28 cells; [11]): 16.2 µM
IC50 (MKN-28 cells; [12]): 15.1 µM
IC50 (MKN-28 cells; [13]): 17.1 µM
IC50 (MKN-28 cells; [14]): 16.5 µM
IC50 (A549 cells; A549, 24 h, Batch 1, 24 h): > 1000 µM
IC50 (A549 cells; A549, 24 h, Batch 2, 24 h): 935 µM
IC50 (A549 cells; A549, 48 h, Batch 1, 48 h): > 1000 µM
IC50 (A549 cells; A549, 48 h, Batch 2, 48 h): 221 µM
IC50 (A549 cells; A549, 72 h, Batch 1, 72 h): > 1000 µM
IC50 (A549 cells; A549, 72 h, Batch 2, 72 h): 192 µM
Structure (SMILES): C[C@H]1[C@@H](O)O[C@@H]2O[C@@]3(C)CC[C@H]4[C@H](C)CC[C@@H]1[C@@]24OO3 [dihydroartemisinin]
IC50 (Hep2 cells; [15]): 114 µM
IC50 (Hep2 cells; [16]): 88.2 µM
IC50 (Hep2 cells; [17]): 126 µM
IC50 (Hep2 cells; [18]): 92 µM
